What was measured:
[1] = Mouse thioglycollate-induced peritonitis model: circulating blood cell counts; details: in vivo
Procedure: The lavage fluid was placed on wet ice pending processing for total and differential cell counts using the Advia analyzer. Following the lavage collection, a blood sample (0.7 mL) was collected from each mouse by intracardiac puncture or from the vena cava (collection time was recorded). 0.5 mL of blood was placed in an EDTA tube, transferred to clinical pathology and analyzed for differential cell counts using the Advia analyzer. 0.2 mL of blood was placed in a K2EDTA tube and processed to plasma. The plasma was collected by centrifugation (3000 rpm for 10 minutes at 4° C.) and placed on dry ice. The samples were analyzed to determine CVC plasma levels. After blood collection, the animals were then exsanguinated by sectioning of the abdominal aorta.
Statistical Analysis: One-way ANOVA with post-hoc Dunnett's statistical analysis was performed on differential cell counts obtained from lavage and blood samples. The analysis was performed in comparison to Group 2.

[2] = Study 202: treatment-emergent laboratory abnormalities (DAIDS grades; CPK, ALT, AST, bilirubin); format: in vivo
Text: The number of subjects with graded treatment-emergent laboratory abnormalities in selected liver parameters of interest is shown in Table 34. No Grade 4 ALT or AST elevations were observed. Except for one Grade 3 AST elevation, all ALT and AST elevations were Grade 1 or Grade 2. […] All abnormalities in bilirubin were Grade 1 or Grade 2. […]

[3] = All CVC (N = 115), EFV (N = 28)
[4] = All CVC (N = 115), EFV (N = 28), through Week 48
[5] = CVC 100 mg (N = 58), through Week 48

In the case of CCCCOCCOc1ccc(-c2ccc3c(c2)/C=C(/C(=O)Nc2ccc([S@@+]([O-])Cc4cncn4CCC)cc2)CCCN3CC(C)C)cc1 [CVC, (S)-8-[4-(2-Butoxyethoxy)phenyl]-1-isobutyl-N-(4-{[(1-propyl-1H-imidazol-5-yl)methyl]sulfinyl}phenyl)-1,2,3,4-tetrahydro-1-benzazocine-5-carboxamide], the “Circulating blood cell counts” value [1] is reported as “no clear changes”, the “Any graded (Grade 1-4) treatment-emergent laboratory abnormality, n subjects” value [2, 3] is reported as 106 and the “Laboratory abnormality, worst Grade 1, n subjects” value [2, 3] is reported as 37. The “Laboratory abnormality, worst Grade 2, n subjects” value [2, 3] was 50, the “Laboratory abnormality, worst Grade 3 (Any Grade 3 abnormality), n subjects” value [2, 3] was 13 and the “Laboratory abnormality, worst Grade 4 (Any Grade 4 abnormality), n subjects” value [2, 3] was 6. The “ALT, worst Grade 1, n subjects” value [2, 4] was 10, the “ALT, worst Grade 2, n subjects” value [2, 4] was 5 and the “ALT, worst Grade 3, n subjects” value [2, 4] was 0. For the same compound, the “ALT, worst Grade 4, n subjects” value [2, 4] was 0, the “AST, worst Grade 1, n subjects” value [2, 4] was 14 and the “AST, worst Grade 2, n subjects” value [2, 4] was 6. The “AST, worst Grade 3, n subjects” value [2, 4] was 1, the “AST, worst Grade 4, n subjects” value [2, 4] was 0 and the “Alanine aminotransferase (ALT) abnormality, any grade, n subjects” value [2, 4] was 15. For the same compound, the “Any Grade 3 or Grade 4 laboratory abnormality, n subjects” value [2, 4] was 19, the “Aspartate aminotransferase (AST) abnormality, any grade, n subjects” value [2, 4] was 21 and the “Aspartate aminotransferase (AST) increased (Grade 3 or 4), n subjects” value [2, 4] was 1. For the same compound, the “Bilirubin abnormality, any grade, n subjects” value [2, 4] was 7, the “Bilirubin, worst Grade 1, n subjects” value [2, 4] was 3 and the “Bilirubin, worst Grade 2, n subjects” value [2, 4] was 4. The “Bilirubin, worst Grade 3, n subjects” value [2, 4] was 0, the “Bilirubin, worst Grade 4, n subjects” value [2, 4] was 0 and the “CPK increased, worst Grade 3, n subjects” value [2, 4] was 8. For the same compound, the “CPK increased, worst Grade 4, n subjects” value [2, 4] was 4, the “Creatine phosphokinase (CPK) increased (Grade 3 or 4), n subjects” value [2, 4] was 12 and the “Fibrinogen decreased (Grade 3 or 4), n subjects” value [2, 4] was 2. For the same compound, the “Fibrinogen decreased, worst Grade 3, n subjects” value [2, 4] was 2, the “Fibrinogen decreased, worst Grade 4, n subjects” value [2, 4] was 0 and the “Hemoglobin decreased (Grade 3 or 4), n subjects” value [2, 4] was 1. The “Hemoglobin decreased, worst Grade 3, n subjects” value [2, 4] was 0, the “Hemoglobin decreased, worst Grade 4, n subjects” value [2, 4] was 1 and the “Neutrophils decreased (Grade 3 or 4), n subjects” value [2, 4] was 2. For the same compound, the “Neutrophils decreased, worst Grade 3, n subjects” value [2, 4] was 2, the “Neutrophils decreased, worst Grade 4, n subjects” value [2, 4] was 0 and the “Phosphate decreased (Grade 3 or 4), n subjects” value [2, 4] was 4. The “Phosphate decreased, worst Grade 3, n subjects” value [2, 4] was 4, the “Phosphate decreased, worst Grade 4, n subjects” value [2, 4] was 0 and the “Prothrombin time/INR increased, worst Grade 3, n subjects” value [2, 4] was 0. For the same compound, the “Prothrombin time/INR increased, worst Grade 4, n subjects” value [2, 4] was 1, the “Subjects with Grade 3 or 4 increases in CPK” value ([2]; CVC 100 mg) was 3 subjects and the “Any graded (Grade 1-4) treatment-emergent laboratory abnormality, n subjects” value ([2]; CVC 100 mg (N = 58)) was 51 (88%). For the same compound, the “Laboratory abnormality, worst Grade 1, n subjects” value ([2]; CVC 100 mg (N = 58)) was 21 (36%), the “Laboratory abnormality, worst Grade 2, n subjects” value ([2]; CVC 100 mg (N = 58)) was 23 (40%) and the “ALT, worst Grade 1, n subjects” value [2, 5] was 4. The “ALT, worst Grade 2, n subjects” value [2, 5] was 3, the “ALT, worst Grade 3, n subjects” value [2, 5] was 0 and the “ALT, worst Grade 4, n subjects” value [2, 5] was 0. For the same compound, the “AST, worst Grade 1, n subjects” value [2, 5] was 8, the “AST, worst Grade 2, n subjects” value [2, 5] was 2 and the “AST, worst Grade 3, n subjects” value [2, 5] was 1. For the same compound, the “AST, worst Grade 4, n subjects” value [2, 5] was 0, the “Alanine aminotransferase (ALT) abnormality, any grade, n subjects” value [2, 5] was 7 and the “Any Grade 3 or Grade 4 laboratory abnormality, n subjects” value [2, 5] was 7. For the same compound, the “Aspartate aminotransferase (AST) abnormality, any grade, n subjects” value [2, 5] was 11, the “Aspartate aminotransferase (AST) increased (Grade 3 or 4), n subjects” value [2, 5] was 1 and the “Bilirubin abnormality, any grade, n subjects” value [2, 5] was 4. For the same compound, the “Bilirubin, worst Grade 1, n subjects” value [2, 5] was 1, the “Bilirubin, worst Grade 2, n subjects” value [2, 5] was 3 and the “Bilirubin, worst Grade 3, n subjects” value [2, 5] was 0. For the same compound, the “Bilirubin, worst Grade 4, n subjects” value [2, 5] was 0, the “CPK increased, worst Grade 3, n subjects” value [2, 5] was 2 and the “CPK increased, worst Grade 4, n subjects” value [2, 5] was 1. The “Creatine phosphokinase (CPK) increased (Grade 3 or 4), n subjects” value [2, 5] was 3, the “Fibrinogen decreased (Grade 3 or 4), n subjects” value [2, 5] was 0 and the “Fibrinogen decreased, worst Grade 3, n subjects” value [2, 5] was 0.

Reference: patent US20180110754A1, “CENICRIVIROC FOR THE TREATMENT OF FIBROSIS” (Tobira Therapeutics, Inc., priority 2015, published 2018)
